Test results published in ChEMBL document CHEMBL4406848, “Novel water soluble BODIPY compounds: Synthesis, photochemical, DNA interaction, topoisomerases inhibition and photodynamic activity properties” (Eur J Med Chem, 2019).
The source made the active and inactive calls. The rule behind the calls is not given here.

Legend:
[1] = tested on: HCT-116; test: Cytotoxicity against human HCT116 cells assessed as cell viability at 5 uM incubated for 24 hrs in dark by MTT assay relative to control; assay type: functional; conditions: HCT-116, 24 h, read-out: Activity
[2] = molecular target: T1, DNA topoisomerase II (Homo sapiens) (UniProt P11388+Q02880); test: Inhibition of recombinant human topoisomerase 2 at 50 uM incubated for 1 hr by ethidium bromide staining based agarose gel electrophoresis method relative to control; assay type: protein assay
[3] = molecular target: T1, DNA topoisomerase II (Homo sapiens); test: Inhibition of recombinant human topoisomerase 2 at 25 uM incubated for 1 hr by ethidium bromide staining based agarose gel electrophoresis method relative to control; assay type: protein assay
[4] = Induction of singlet oxygen generation in DMSO solution assessed as singlet oxygen quantum yield by measuring reduction in DPBF irradiated with 650 nanometer laser light; assay type: functional
[5] = tested on: HCT-116; test: Cytotoxicity against human HCT116 cells assessed as cell viability at 50 uM incubated for 24 hrs in dark by MTT assay relative to control; assay type: functional; conditions: HCT-116, 24 h, read-out: Activity
[6] = tested on: Calf thymus DNA; test: Binding affinity to calf thymus DNA assessed as binding constant incubated for 10 mins by UV-visible spectrophotometry; assay type: nucleic-acid assay; conditions: Bos taurus
[7] = tested on: DNA; test: Induction of Escherichia coli plasmid pBR322 DNA cleavage assessed as decrease in supercoiled DNA at 3.125 uM in presence of light irradiation and incubated for 1 hr by agarose gel electrophoresis relative to control; assay type: nucleic-acid assay; design: scale not given: the % may be the effect or the level left
[8] = molecular target: T2, DNA topoisomerase 1 (Homo sapiens) (UniProt P11387); test: Inhibition of recombinant human topoisomerase 1 at 50 uM incubated for 1 hr by ethidium bromide staining based agarose gel electrophoresis method relative to control
T2 sequence (whole entry): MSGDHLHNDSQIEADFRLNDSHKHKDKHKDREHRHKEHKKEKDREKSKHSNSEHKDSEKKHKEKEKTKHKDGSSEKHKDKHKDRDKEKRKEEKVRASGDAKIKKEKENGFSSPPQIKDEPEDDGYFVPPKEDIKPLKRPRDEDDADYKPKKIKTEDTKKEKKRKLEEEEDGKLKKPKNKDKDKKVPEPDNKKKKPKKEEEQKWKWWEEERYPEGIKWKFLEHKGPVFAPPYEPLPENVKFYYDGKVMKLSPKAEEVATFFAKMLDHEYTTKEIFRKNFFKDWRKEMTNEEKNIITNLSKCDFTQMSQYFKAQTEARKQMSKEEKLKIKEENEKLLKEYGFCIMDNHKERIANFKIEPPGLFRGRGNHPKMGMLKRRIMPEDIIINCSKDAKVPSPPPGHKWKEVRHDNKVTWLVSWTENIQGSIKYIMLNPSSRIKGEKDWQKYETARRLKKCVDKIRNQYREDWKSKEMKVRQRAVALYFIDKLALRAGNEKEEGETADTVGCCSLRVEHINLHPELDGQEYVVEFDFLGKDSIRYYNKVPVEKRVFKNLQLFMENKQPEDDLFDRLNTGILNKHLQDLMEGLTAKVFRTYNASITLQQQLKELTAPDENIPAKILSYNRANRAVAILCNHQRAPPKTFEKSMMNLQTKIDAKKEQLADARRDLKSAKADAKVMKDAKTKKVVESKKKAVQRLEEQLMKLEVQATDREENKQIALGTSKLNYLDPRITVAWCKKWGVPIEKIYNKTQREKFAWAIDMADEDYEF

[9] = molecular target: T1, DNA topoisomerase II (Homo sapiens); test: Inhibition of recombinant human topoisomerase 2 assessed as supercoiled DNA at 50 uM incubated for 1 hr by ethidium bromide staining based agarose gel electrophoresis method relative to control; assay type: protein assay; design: scale not given: the % may be the effect or the level left
[10] = tested on: HCT-116; test: Induction of apoptosis in human HCT116 cells assessed as viable cells at 10 uM incubated for 24 hrs in presence of irradiation by annexin V FITC and propidium iodide based flow cytometry (reference value: 94.8 %); assay type: functional; conditions: HCT-116, light or radiation study, read-out: Activity
[11] = tested on: HCT-116; test: Phototoxicity against human HCT116 cells assessed as cell viability at 50 uM incubated for 24 hrs under 17.5 mW/cm2 light irradiation by MTT assay relative to control; assay type: functional; conditions: HCT-116, light or radiation study, read-out: Activity
[12] = tested on: HCT-116; test: Cytotoxicity against human HCT116 cells assessed as cell viability at 100 uM incubated for 24 hrs in dark by MTT assay relative to control; assay type: functional; conditions: HCT-116, 24 h, read-out: Activity
[13] = tested on: HCT-116; test: Phototoxicity against human HCT116 cells assessed as cell viability at 100 uM incubated for 24 hrs under 17.5 mW/cm2 light irradiation by MTT assay relative to control; assay type: functional; conditions: HCT-116, light or radiation study, read-out: Activity
[14] = tested on: HCT-116; test: Phototoxicity against human HCT116 cells assessed as cell viability at 5 uM incubated for 24 hrs under 17.5 mW/cm2 light irradiation by MTT assay relative to control; assay type: functional; conditions: HCT-116, light or radiation study, read-out: Activity
[15] = tested on: HCT-116; test: Cytotoxicity against human HCT116 cells assessed as cell viability at 0.5 uM incubated for 24 hrs in dark by MTT assay relative to control; assay type: functional; conditions: HCT-116, 24 h, read-out: Activity
[16] = tested on: HCT-116; test: Phototoxicity against human HCT116 cells assessed as cell viability at 0.5 uM incubated for 24 hrs under 17.5 mW/cm2 light irradiation by MTT assay relative to control; assay type: functional; conditions: HCT-116, light or radiation study, read-out: Activity
[17] = tested on: HCT-116; test: Induction of apoptosis in human HCT116 cells assessed as late apoptotic cells at 10 uM incubated for 24 hrs in presence of irradiation by annexin V FITC and propidium iodide based flow cytometry (reference value: 1.6 %); assay type: functional
[18] = tested on: Calf thymus DNA; test: Binding affinity to calf thymus DNA assessed as percentage of hypochromicity incubated for 10 mins by UV-visible spectrophotometry; assay type: nucleic-acid assay; conditions: Bos taurus
[19] = Photostability of compound in TBS assessed as percentage of photodegradation measured every 10 mins for 1 hr at 17.5 mW/cm'2 irradiation by UV-visible spectrophotometry
[20] = tested on: HCT-116; test: Cytotoxicity against human HCT116 cells assessed as cell viability incubated for 24 hrs in dark by MTT assay; assay type: functional, cell-based; conditions: for IC50: HCT-116, 24 h
[21] = tested on: HCT-116; test: Phototoxicity against human HCT116 cells assessed as cell viability at 1 uM incubated for 24 hrs under 17.5 mW/cm2 light irradiation by MTT assay relative to control; assay type: functional; conditions: HCT-116, light or radiation study, read-out: Activity
[22] = tested on: HCT-116; test: Phototoxicity against human HCT116 cells assessed as reduction in cell viability incubated for 24 hrs under 17.5 mW/cm2 light irradiation by MTT assay; assay type: functional, cell-based; conditions: HCT-116, light or radiation study
[23] = molecular target: T2, DNA topoisomerase 1 (Homo sapiens); test: Inhibition of recombinant human topoisomerase 1 at 25 uM incubated for 1 hr by ethidium bromide staining based agarose gel electrophoresis method relative to control
[24] = tested on: HCT-116; test: Cytotoxicity against human HCT116 cells assessed as cell viability at 1 uM incubated for 24 hrs in dark by MTT assay relative to control; assay type: functional; conditions: HCT-116, 24 h, read-out: Activity
[25] = tested on: HCT-116; test: Induction of apoptosis in human HCT116 cells assessed as early apoptotic cells at 10 uM incubated for 24 hrs in presence of irradiation by annexin V FITC and propidium iodide based flow cytometry (reference value: 3.4 %); assay type: functional
[26] = tested on: DNA; test: Induction of Escherichia coli plasmid pBR322 DNA cleavage at 3.125 to 25 uM incubated for 1 hr in dark by agarose gel electrophoresis; assay type: nucleic-acid assay
[27] = molecular target: T2, DNA topoisomerase 1 (Homo sapiens); test: Inhibition of recombinant human topoisomerase 1 at 12.50 uM incubated for 1 hr by ethidium bromide staining based agarose gel electrophoresis method relative to control
[28] = Induction of singlet oxygen generation in TBS solution assessed as singlet oxygen quantum yield by measuring reduction in ADMA irradiated with 650 nanometer laser light; assay type: functional

SMILES | viability at 5 µM [1] [%] | inhibition [2] [%] | inhibition [3] [%] | Activity [4] | viability at 50 µM [5] [%] | Kb [6] | Activity [7] [%] | inhibition [8] [%] | Activity [9] [%] | viability at 10 µM [10] [%] | viability at 50 µM [11] [%] | viability at 100 µM [12] [%] | viability at 100 µM [13] [%] | viability at 5 µM [14] [%] | viability at 0.5 µM [15] [%] | viability at 0.5 µM [16] [%] | Activity [17] [%] | Activity [18] [%] | Drug degradation [19] [%] | IC50 [20] [µM] | also measured
CC1=CC(/C=C/c2ccc(OCCCc3ccc[n+](C)c3)c(OCCCc3ccc[n+](C)c3)c2)=[N+]2C1=C(c1ccc(OCCCc3ccc[n+](C)c3)c(OCCCc3ccc[n+](C)c3)c1)c1c(C)cc(/C=C/c3ccc(OCCCc4ccc[n+](C)c4)c(OCCCc4ccc[n+](C)c4)c3)n1[B-]2(F)F.[I-].[I-].[I-].[I-].[I-].[I-] | 96 | 61.5 | 58.7 | 0.62 | 100 | 1.59 ×10³ /M | 58.5 | 89.9 | 87.7 | 95.5 | 85 | 90 | 66 | 100 | 100 | 100 | 1 | 46.7 | 18.7 | > 100 | viability at 1 µM [21]: 100%; IC50 [22]: > 100 µM; inhibition [23]: 89.4%; viability at 1 µM [24]: 100%; Activity [25]: 3.3%; Activity [26]: inactive; inhibition [27]: 89.1%; Activity [28]: 0.3
CC1=CC(/C=C/c2ccc(OCCCc3ccc[n+](C)c3)cc2)=[N+]2C1=C(c1ccc(OCCCc3ccc[n+](C)c3)cc1)c1c(C)cc(/C=C/c3ccc(OCCCc4ccc[n+](C)c4)cc3)n1[B-]2(F)F.[I-].[I-].[I-] | 91 | 56.2 | 54.6 | 0.46 | 67 | 1.87 ×10⁴ /M | 76.8 | 89 | 77.2 | 9.6 | 6 | 57 | 0 | 25 | 100 | 100 | 32.5 | 47.8 | 17.7 | > 100 | Activity [20]: Dose-dependent effect; viability at 1 µM [21]: 97%; IC50 [22]: 3.95 µM; inhibition [23]: 88.6%; viability at 1 µM [24]: 100%; Activity [25]: 54.4%; Activity [26]: inactive; inhibition [27]: 88.5%; Activity [28]: 0.21
